The results in this text go back to PMC10065799, “High-throughput profiling of sequence recognition by tyrosine kinases and SH2 domains using bacterial peptide display” (eLife, 2023).

Common to all, as to test: pTyr-Var library bacterial peptide display kinase screen (enrichment scores)
One test has as its target T1, c-Abl kinase domain (Mus musculus, UniProt P00520).
T1 sequence (P00520 242-493 limits assumed): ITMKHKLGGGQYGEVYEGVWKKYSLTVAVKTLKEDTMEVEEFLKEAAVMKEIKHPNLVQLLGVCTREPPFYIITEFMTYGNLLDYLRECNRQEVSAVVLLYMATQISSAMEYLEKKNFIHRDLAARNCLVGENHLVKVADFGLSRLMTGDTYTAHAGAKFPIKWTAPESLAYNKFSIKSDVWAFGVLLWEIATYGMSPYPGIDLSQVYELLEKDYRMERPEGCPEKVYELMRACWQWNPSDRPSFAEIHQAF
Format: biochemical.

The next test relates to EPHB2 kinase domain. It is filed as biochemical, human. The note with it: sheet EPHB2; effect of variant peptide relative to its reference peptide in the pTyr-Var library screen (enrichment scores).
The next test concerns Fer kinase domain. Format: biochemical, mouse. The note with it: sheet "Fer".
For another test, the target named is c-Src kinase domain (Homo sapiens, UniProt P12931). Format: biochemical. The conditions noted are these: sheet "Src".
Where [1] appears, read: fig5-data2, sheet "Abl", Screen for the variant/reference peptide pair, pTyr-Var library.
Setting [2] is: variant peptide relative to its reference peptide, pTyr-Var library screen enrichment.
[3] abbreviates: value of the variant peptide against its reference peptide in the pTyr-Var library screen with Fer.
[4] abbreviates: variant peptide versus its reference peptide in the pTyr-Var library screen.
[5] abbreviates: sheet "Abl", effect of variant peptide relative to its reference peptide in pTyr-Var library screen (enrichment).
The mark [6] stands for this setting: effect of the variant peptide relative to its reference peptide in the pTyr-Var library screen.
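Also: log2 fold change in enrichment of variant over reference.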

TLLAFYMGNFS [GLB1_Y552_P549L] displayed a Screen at c-Abl kinase domain (setting [1]) of -0.5504. For the sequence LRSRVYEVPVE [SLC26A3_Y756_N753S], the results for the Screen in the test on EPHB2 kinase domain and with Fer kinase domain (setting [2]) were -0.8191 and -0.9023, respectively. At c-Abl kinase domain (setting [1]), FKGIVYSVSSD [DCX_Y70_A71S] came in with a Screen of -0.3809. Same read-out and setting: then SRNSKYNAEST [PSEN1_Y315_K311R], with -1.342. As to KNKELYSDPFD [PDE10A_Y300_L303P], the Screen in the test on Fer kinase domain (setting [3]) is recorded as -1.007. Regarding ADDSFYTVRSA [ZAP70_Y493_A495V_YF], the Screen at c-Src kinase domain (setting [4]) is 1.093; on c-Abl kinase domain (setting [5]) it was -3.301.

On to SVMAEYGLFAA [VSX2_Y219_G223A_YF], for which the Screen at c-Src kinase domain (setting [4]) is -0.3175. Take PVQAAYQKVEA [HBB_Y131_V135E]: the Screen on c-Abl kinase domain (setting [1]) was -0.9436. Regarding PSDLLYIPDIQ [ITGA2B_Y845_L847P], the Screen at c-Src kinase domain (setting [6]) is recorded as -2.46. As for HFPDVYAWEQL [ALX3_Y181_R183W_YF], the Screen at c-Src kinase domain (setting [6]) is recorded as 2.591; in the test on Fer kinase domain (setting [3]), 4.265.

LESILYESSVV [TRPV4_Y91_T89I]: the values for the Screen at c-Src kinase domain (setting [4]) and in the test with Fer kinase domain (setting [2]) were -0.6958 and -0.3592, respectively. Regarding FGCGMYSHLQG [LGR4_Y848_D844G_YF], the Screen is recorded as -0.3661 at c-Src kinase domain (setting [6]) and -1.105 in the test with Fer kinase domain (setting [3]). Regarding QFKGKYLAKHN [CASK_Y712_D710G_YF], the Screen at c-Abl kinase domain (setting [1]) turned out to be 0.5412. KAWTIYHPEDS [ZBP1_Y165_R166H]: the Screen at c-Abl kinase domain (setting [5]) turned out to be 3.304. LIGRGYDDPEV [HSPA9_Y128_R127G]: in the test on EPHB2 kinase domain, the Screen was -1.099.

The sequence PLQKIYNFNVL [SLC4A1_Y553_T552I_YF] came in with a Screen on c-Src kinase domain (setting [4]) of 2.735.

On c-Abl kinase domain (setting [1]), AALLNYKAGRD [GRIN2A_Y737_V734L] gave a Screen of -0.3155. For FIIFIYAMKKK [SLCO1B1_Y645_L643F_YF], the Screen on c-Src kinase domain (setting [4]) was determined as 2.408.

AKKMKYFEGVS [PRKDC_Y682_I680M] registered a Screen at c-Abl kinase domain (setting [1]) of 0.9485. In the case of NHFKIYNLFAE [PTEN_Y68_C71Y_YF], the Screen at c-Src kinase domain (setting [4]) was -1.146. PIPIKYKAMKK [MYD88_Y257_L252P] had a Screen on c-Abl kinase domain (setting [1]) of -1.096. Regarding LGKLTYPVGFW [NTHL1_Y177_I176T], the Screen with EPHB2 kinase domain was 0.6291. As for SDMGQYQCLVF [AXL_Y115_T112M], the figures for the Screen on c-Src kinase domain (setting [6]) and in the test on Fer kinase domain (setting [3]) were 0.2602 and 0.2934, respectively. VGAKTYKMSMA [CPS1_Y309_A304V]: the Screen at c-Abl kinase domain (setting [1]) was 0.4399.

The sequence FSTPPYLLEAA [BRIP1_Y921_S919P_YF] displayed a Screen on c-Src kinase domain (setting [6]) of -1.274.

EACPSYSHVVL [CHST6_Y168_R166P] came in with a Screen with Fer kinase domain (setting [3]) of 2.885. At c-Src kinase domain (setting [4]), PPDGEYFTLQI [TP53_Y327_L323P] showed a Screen of 0.5031. As for PLDEEYFTLQI [TP53_Y327_G325E], the Screen was -0.5709 on c-Src kinase domain (setting [4]) and -1.267 at c-Abl kinase domain (setting [5]). For PGDGEYFTLQI [TP53_Y327_L323G], at c-Src kinase domain (setting [4]), the Screen is on record as 0.07795.

At c-Abl kinase domain (setting [5]), TVLEPYTDPFF [ZC3H18_Y367_A368T_YF] yielded a Screen of 2.315. For PLDVEYFTLQI [TP53_Y327_G325V], the Screen is on record as -0.5097 at c-Src kinase domain (setting [4]) and -0.7642 at c-Abl kinase domain (setting [5]).

Turning to LERFIYNRQEF [HLA-DPB1_Y59_E62Q_YF], the Screen on c-Src kinase domain (setting [6]) is recorded as -1.248. Consider STTSDYQWDFS [MTDH_Y364_V368F], for which the Screen on c-Abl kinase domain (setting [1]) was -0.6152. On the same count and under the same terms, then PQIVNYSPDCI [LDHB_Y128_K127N], with -0.6074. As for TESALYGCTIL [MAP3K21_Y724_V728I], the Screen on c-Src kinase domain (setting [6]) was 0.3601; with Fer kinase domain (setting [3]), -0.01841. Sequence KLSHLYQDHMQ [WNT5A_Y86_C83S] returned a Screen on c-Abl kinase domain (setting [5]) of -1.969.

Sequence CEAIEYLESKQ [BTK_Y511_M509I] came in with a Screen on c-Abl kinase domain (setting [1]) of 1.454. Still for that read-out and setting: as for DRQASYLDKVR [KRT17_Y98_L95Q], the figure is 2.325; as for NNRVFYGNSDC [RS1_Y177_R182C], -1.349. In turn, DRLTVYIDRVR [LMNA_Y45_A43T] had a Screen on c-Abl kinase domain (setting [1]) of -0.2946. Turning to LFLALYTGLVR [PIGB_Y402_H407R], at c-Src kinase domain (setting [4]), the Screen is -0.3512. The sequence RLLVVYTWTQR [HBB_Y36_P37T] came in with a Screen on c-Abl kinase domain (setting [1]) of 0.544. On the same count and under the same terms, as for VRFMAYTDETC [F8_Y450_F455C], the figure is 1.283. For the sequence AHARMYGVLPW [PLP1_Y207_D203H], the Screen is recorded as -1.491 on c-Src kinase domain (setting [4]) and -2.408 with EPHB2 kinase domain. For EGTATYAAAIL [JUP_Y644_V648I], the results for the Screen with EPHB2 kinase domain and in the test on Fer kinase domain (setting [3]) were 0.4332 and 0.5368, respectively.
